The conditions of the data set: Crystal; DTA.

Numbers after ± are expanded uncertainties.

`CCOC(=O)CCC[N+]1(C)CCCC1.[Br-]` [1-(4-ethoxy-4-oxobutyl)-1-methylpyrrolidinium bromide]: the Normal melting temperature amounted to 73.00 ± 1 °C.

These data come from the NIST ThermoML archive (doi:10.1016/j.fluid.2019.05.001).
